Reference: US12655158B2, “Biomimetic G-quartet compounds” (CENTRE NATIONAL DE LA RECHERCHE SCIENTIFIQUE, priority 2020, dated 2026)

Tested on: doubly labelled quadruplex F21T (F-21-T, FAM-d[GGGTTAGGGTTAGGGTTAGGG]-TAMRA)
Assay: FRET-melting assay with F21T quadruplex
Format: binding
Details: F21T 0.2 μM, Caco.K buffer, 5 molar equivalents of TASQ; means of 3 experiments
Procedure: The lyophilized DNA strands (purchased from Eurogentec, Seraing, Belgium) were firstly diluted at 500 μM in deionized water (18.2 MΩ·cm resistivity). The DNA batch was prepared in a Caco.K buffer, comprised of 10 mM lithium cacodylate buffer (pH 7.2) plus 10 mM KCl/90 mM LiCl.
The quadruplex structure was prepared by mixing 40 μL of the constitutive strand (500 μM) with 8 μL of a lithium cacodylate buffer solution (100 mM, pH 7.2), plus 8 μL of a KCl/LiCl solution (100 mM/900 mM) and 24 μL of water. The final DNA concentration was theoretically 250 μM. The actual concentration of the DNA was determined through a dilution to 1 μM theoretical concentration through UV spectral analysis at 260 nm (after 5 min at 90° C.) with the following molar extinction coefficient values: 268300 M^−1·cm^−1 (F21 T). The higher-order DNA structure was folded as follows: solutions were heated (90° C., 5 min), cooled on ice (7 h) and then stored at least overnight (4° C.). […] Final data were analyzed with Excel (Microsoft Corp.) and OriginPro® 9.1 (OriginLab Corp.). […]
The apparent affinity of each G4-ligands is quantified via fluorescence resonance energy transfer (FRET)-melting experiments. […]

Compound	Thermal stabilization ΔT1/2
NCCN(CC(=O)NCCNC(=O)CN1CCN(CC(=O)NCCNC(=O)CN(CCN)C(=O)Cn2cnc3c(=O)[nH]c(N)nc32)CCN(CC(=O)NCCNC(=O)CN(CCN)C(=O)Cn2cnc3c(=O)[nH]c(N)nc32)CCN(CC(=O)NCCNC(=O)CN(CCN)C(=O)Cn2cnc3c(=O)[nH]c(N)nc32)CC1)C(=O)Cn1cnc2c(=O)[nH]c(N)nc21 [^PNADOTASQ]	9.1 °C
NCCN(CC(=O)NCCNC(=O)CN1CCN(CC(=O)NCCNC(=O)CN(CCN)C(=O)Cn2cnc3c(=O)[nH]c(N)nc32)CCN(CC(=O)NCCNC(=O)CN(CCN)C(=O)Cn2cnc3c(=O)[nH]c(N)nc32)C(CNC(=O)CCCC[C@H]2SCC3NC(=O)NC32)CN(CC(=O)NCCNC(=O)CN(CCN)C(=O)Cn2cnc3c(=O)[nH]c(N)nc32)CC1)C(=O)Cn1cnc2c(=O)[nH]c(N)nc21 (some centres unmarked) [BioTASQ]	2.2 °C
